Source: patent US7087648B1, “Methods for modulating macrophage proliferation using polyamine analogs” (The Regents of the University of California, priority 1997, dated 2006)
Like-named read-outs stand apart in the source and are kept apart here.

System: CD14^+ cells
Experiment: In vitro dose response in NHL patient PBMC; total CD14^+ cell survival
Format: cell-based, human
Conditions: for EC50: Homo sapiens, PBMC, 120 h, read-out: ED50 (50% of cells killed); for EC50 / ED80 (80% of cells killed): 5 days of culture; for drug sensitivity in vitro: post in vivo DEHOP administration blood specimens
Description: To test whether patient macrophages would respond to administration of DEHOP in vitro, CD14 cells in a peripheral blood mononuclear cell preparation (PBMC) were exposed to different concentrations of DEHOP and the proportion of CD14 positive cells surviving at the end of 5 days of culture was assessed in drug treated cells as compared to controls. Specimens obtained pre chemotherapy were compared to specimens obtained 2 weeks post therapy. […] For patient four, the first specimen was obtained one day after the first cycle of DEHOP; the second specimen was obtained one week later. The effective dose 50 (where 50% of cells were killed), and effective dose 80 (where 80% of cells were killed) were calculated for each set of patient specimens exposed to DEHOP in vitro.

In the case of `CCNCCCCNCCCCNCCCCNCC` [DEHOP, 1,14-bis(ethylamino)-5,10-diazatetradecane], the EC50 (patient one, Pre specimen) is reported as 10 µM, the EC50 (patient three, Post specimen) is reported as 0.1 µM and the EC50 (patient three, Pre specimen) is reported as 10 µM. The EC50 (patient two, Post specimen) was greater than 10 µM, the EC50 (patient two, Pre specimen) was 1 µM and the “ED80 (80% of cells killed)” value (patient four, Post specimen) was 0.1 µM. The “ED80 (80% of cells killed)” value (patient four, Pre specimen) was 1.0 µM, the “ED80 (80% of cells killed)” value (patient one, Pre specimen) was greater than 10 µM and the “ED80 (80% of cells killed)” value (patient three, Post specimen) was 0.8 µM. For the same compound, the “ED80 (80% of cells killed)” value (patient three, Pre specimen) was greater than 10 µM, the “ED80 (80% of cells killed)” value (patient two, Post specimen) was greater than 10 µM and the “ED80 (80% of cells killed)” value (patient two, Pre specimen) was greater than 10 µM. For the same compound, the “drug sensitivity in vitro” value (patient two) was “persistently resistant to drug” and the “drug sensitivity in vitro” value (patients) was “marked drug sensitivity”.
